Source: ChEMBL document CHEMBL4382199, “Application of Virtual Screening to the Identification of New LpxC Inhibitor Chemotypes, Oxazolidinone and Isoxazoline” (J Med Chem, 2018)
pKd: −log10 of the molar value. Converted amounts (≈) assume the structure as drawn. The source made the active and inactive calls. No cut-off for these calls is given here.

Legend:
Klebsiella pneumoniae [1] = assay: Antimicrobial activity against Klebsiella pneumoniae ATCC 43816 after 20 hrs by CLSI protocol-based microdilution assay; type: functional; conditions: ATCC 43816, 20 h
Klebsiella pneumoniae [2] = assay: Inhibition of LpxC in Klebsiella pneumoniae ATCC 43816 assessed as antibacterial activity after 20 hrs in presence of rifampicin by CLSI protocol-based microdilution assay
Escherichia coli = assay: Antimicrobial activity against Escherichia coli ATCC 25922 after 20 hrs by CLSI protocol-based microdilution assay; type: functional; conditions: ATCC 25922, 20 h
[3] = Lipophilicity, log D of the compound at pH 7.4; type: physicochemical; conditions: buffer
Klebsiella pneumoniae [4] = assay: Inhibition of LpxC in Klebsiella pneumoniae ATCC 43816 assessed as potentiation factor by measuring ratio of MIC of compound alone to MIC of compound in presence of vancomycin after 20 hrs by CLSI protocol-based microdilution assay
Klebsiella pneumoniae [5] = assay: Inhibition of LpxC in Klebsiella pneumoniae ATCC 43816 assessed as antibacterial activity after 20 hrs in presence of vancomycin by CLSI protocol-based microdilution assay
Pseudomonas aeruginosa [6] = assay: Antimicrobial activity against Pseudomonas aeruginosa ATCC 27853 after 20 hrs by CLSI protocol-based microdilution assay; type: functional; conditions: ATCC 27853, 20 h
Klebsiella pneumoniae [7] = assay: Inhibition of LpxC in Klebsiella pneumoniae ATCC 43816 assessed as potentiation factor by measuring ratio of MIC of compound alone to MIC of compound in presence of rifampicin after 20 hrs by CLSI protocol-based microdilution assay
[8] = target: T1, UDP-3-O-acyl-N-acetylglucosamine deacetylase (Pseudomonas aeruginosa (strain ATCC 15692 / PAO1 / 1C / PRS 101 / LMG12228), UniProt P47205); assay: Binding affinity to Pseudomonas aeruginosa PAO1 NB52019 LpxC after 60 to 420 secs by SPR method
T1 sequence (P47205 whole entry): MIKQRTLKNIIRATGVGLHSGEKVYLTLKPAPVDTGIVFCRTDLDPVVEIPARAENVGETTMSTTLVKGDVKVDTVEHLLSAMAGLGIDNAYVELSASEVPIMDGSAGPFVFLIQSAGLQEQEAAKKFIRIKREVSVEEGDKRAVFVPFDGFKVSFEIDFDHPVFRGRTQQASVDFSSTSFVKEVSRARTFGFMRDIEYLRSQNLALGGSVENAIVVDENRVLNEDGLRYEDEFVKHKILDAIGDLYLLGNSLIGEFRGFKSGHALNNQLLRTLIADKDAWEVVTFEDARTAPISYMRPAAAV

Klebsiella pneumoniae [9] = assay: Antibacterial activity against Klebsiella pneumoniae infected in mouse model of lung infection assessed as reduction in bacterial load in lung at 200 mg/kg, sc dosed every 6 hrs and measured after 48 hrs post first treatment; type: functional, organism-based
Klebsiella pneumoniae [10] = assay: Antibacterial activity against Klebsiella pneumoniae infected in lung infection mouse model assessed as log reduction in bacterial load in lungs at 200 mg/kg, sc dosed every 6 hrs measured after 48 hrs post first treatment; type: functional, organism-based
[11] = Protein binding in mouse plasma; type: ADME, cell-free; conditions: read-out: PPB (converted)
Klebsiella pneumoniae [12] = assay: Antibacterial activity against Klebsiella pneumoniae infected in mouse model of lung infection assessed as reduction in bacterial load in lung at 20 mg/kg, sc dosed every 6 hrs and measured after 48 hrs post first treatment; type: functional
[13] = Protein binding in dog plasma; type: ADME, cell-free, Canis lupus familiaris; conditions: read-out: PPB (converted)
[14] = Clearance in rat at 5 mg/kg, iv; type: ADME, organism-based; conditions: in vivo
Klebsiella pneumoniae [15] = assay: Antibacterial activity against Klebsiella pneumoniae infected in mouse model of lung infection assessed as reduction in bacterial load in lung at 20 mg/kg, sc dosed every 6 hrs co-treated with 200 mg/kg vancomycin and measured after 48 hrs post first treatment (reference value: 4.5 log10CFU/g); type: functional
[16] = Volume of distribution at steady state in mouse at 60 mg/kg, iv; type: ADME, organism-based; conditions: in vivo, read-out: Vdss
Pseudomonas aeruginosa [17] = assay: Antimicrobial activity against Pseudomonas aeruginosa infected in mouse model of neutropenic thigh infection assessed reduction in bacterial levels in thigh at 105 mg/kg/day, sc administered 2 hrs post infection every 6 hrs for 24 hrs; type: functional, organism-based
[18] = Clearance in mouse at 60 mg/kg, iv; type: ADME, organism-based; conditions: in vivo
[19] = Clearance in dog at 10 mg/kg, iv; type: ADME, organism-based, Canis lupus familiaris; conditions: in vivo
[20] = Solubility of the compound at pH 9; type: physicochemical; conditions: buffer
[21] = Half life in mouse at 60 mg/kg, iv; type: ADME, organism-based; conditions: in vivo
[22] = Half life in dog at 10 mg/kg, iv; type: ADME, organism-based, Canis lupus familiaris; conditions: in vivo
Pseudomonas aeruginosa [23] = assay: Antimicrobial activity against Pseudomonas aeruginosa infected in mouse model of neutropenic thigh infection assessed reduction in bacterial levels in thigh at 160 mg/kg/day, sc administered 2 hrs post infection every 6 hrs for 24 hrs; type: functional, organism-based
[24] = Protein binding in rat plasma; type: ADME, cell-free; conditions: read-out: PPB (converted)
[25] = Half life in rat at 5 mg/kg, iv; type: ADME, organism-based; conditions: in vivo
[26] = Volume of distribution at steady state in rat at 5 mg/kg, iv; type: ADME, organism-based; conditions: in vivo, read-out: Vdss
[27] = Volume of distribution at steady state in dog at 10 mg/kg, iv; type: ADME, organism-based, Canis lupus familiaris; conditions: in vivo, read-out: Vdss
[28] = Protein binding in human plasma; type: ADME, cell-free; conditions: read-out: PPB (converted)
[29] = Solubility of the compound at pH 7.4; type: physicochemical; conditions: buffer

| Compound | MIC (Klebsiella pneumoniae [1]) [mg/L] | MIC (Klebsiella pneumoniae [2]) [mg/L] | MIC (Escherichia coli) [mg/L] | logD [3] | MIC (Klebsiella pneumoniae [5]) [mg/L] | MIC (Pseudomonas aeruginosa [6]) [mg/L] | pKd [8] | further results |
| --- | --- | --- | --- | --- | --- | --- | --- | --- |
| CCCc1ccc(N2C[C@H](C[C@](C)(C(=O)NO)S(C)(=O)=O)OC2=O)cc1 | 32 (≈ 83.2 µM) | 1 | 4 (≈ 10.4 µM) | 1.6 | 8 | 0.5 (≈ 1.3 µM) | 9.77 | fold change (FC) (Klebsiella pneumoniae [4]): 4; fold change (FC) (Klebsiella pneumoniae [7]): 32 |
| CC#Cc1ccc(N2C[C@H](C[C@](C)(C(=O)NO)S(C)(=O)=O)OC2=O)cc1 | 16 (≈ 42.1 µM) | 0.25 | 2 (≈ 5.26 µM) | 1.4 | 4 | 0.5 (≈ 1.31 µM) | 10.20 | fold change (FC) (Klebsiella pneumoniae [4]): 4; fold change (FC) (Klebsiella pneumoniae [7]): 64 |
| C[C@@](C[C@H]1CN(c2ccc(-c3ccccc3)cn2)C(=O)O1)(C(=O)NO)S(C)(=O)=O | 32 (≈ 76.3 µM) |  | 2 (≈ 4.77 µM) | 1.8 |  | 2 (≈ 4.77 µM) | 9.92 |  |
| CC#Cc1ccc(C2=NO[C@@H](C[C@](C)(C(=O)NO)S(C)(=O)=O)C2)cc1 | 8 (≈ 22 µM) | 0.25 | 1 (≈ 2.74 µM) | 1.4 | 2 | 0.5 (≈ 1.37 µM) | 9.36 | fold change (FC) (Klebsiella pneumoniae [4]): 4; fold change (FC) (Klebsiella pneumoniae [7]): 32 |
| C/C=C/c1ccc(C2=NO[C@@H](C[C@](C)(C(=O)NO)S(C)(=O)=O)C2)cc1 | 16 (≈ 43.7 µM) |  | 2 (≈ 5.46 µM) | 2 |  | 1 (≈ 2.73 µM) | 9.52 |  |
| CCCc1ccc(C2=NO[C@@H](C[C@](C)(C(=O)NO)S(C)(=O)=O)C2)cc1 | 16 (≈ 43.4 µM) |  | 4 (≈ 10.9 µM) | 1.7 |  | 1 (≈ 2.71 µM) | 9.70 |  |
| C[C@@H](O)[C@H](NC(=O)c1ccc(C#Cc2ccc(CN3CCOCC3)cc2)cc1)C(=O)NO | 0.5 (≈ 1.14 µM) |  | 0.125 (≈ 0.286 µM) |  |  | 2 (≈ 4.57 µM) |  |  |
| C[C@@](C[C@H]1CC(c2ccc(C#CC3CC3)cc2)=NO1)(C(=O)NO)S(C)(=O)=O | 0.5 (≈ 1.28 µM) | 0.03 | 0.125 (≈ 0.32 µM) | 2.2 | 0.125 | 1 (≈ 2.56 µM) | 9.77 | fold change (FC) (Klebsiella pneumoniae [4]): 4; fold change (FC) (Klebsiella pneumoniae [7]): 16 |
| C[C@@](C[C@H]1CN(c2ccc(Br)cc2)C(=O)O1)(C(=O)NO)S(C)(=O)=O | > 64 |  | > 64 | 1 |  | 0.5 (≈ 1.19 µM) | 9.68 |  |
| CC(C)(O)[C@H]1C[C@H](C#Cc2ccc(N3C[C@H](C[C@](C)(C(=O)NO)S(C)(=O)=O)OC3=O)cc2)C1 | 1 (≈ 2.09 µM) | 0.5 | 0.5 (≈ 1.04 µM) | 1.6 | 1 | 1 (≈ 2.09 µM) | 9.70 | fold change (FC) (Klebsiella pneumoniae [4]): 1; fold change (FC) (Klebsiella pneumoniae [7]): 2 |
| CN[C@H](CC(C)C)C(=O)N[C@H]1C(=O)N[C@@H](CC(N)=O)C(=O)N[C@H]2C(=O)N[C@H]3C(=O)N[C@H](C(=O)N[C@H](C(=O)O)c4cc(O)cc(O)c4-c4cc3ccc4O)[C@H](O)c3ccc(c(Cl)c3)Oc3cc2cc(c3O[C@@H]2O[C@H](CO)[C@@H](O)[C@H](O)[C@H]2O[C@H]2C[C@](C)(N)[C@H](O)[C@H](C)O2)Oc2ccc(cc2Cl)[C@H]1O [VANCOMYCIN] | > 128 |  |  |  |  |  |  | Activity (Klebsiella pneumoniae [9]): inactive; Activity (Klebsiella pneumoniae [10]): inactive |
| C[C@@](C[C@H]1CN(c2ccc(-c3ccccc3)cc2)C(=O)O1)(C(=O)NO)S(C)(=O)=O | 4 (≈ 9.56 µM) |  | 0.25 (≈ 0.597 µM) | 2.3 |  | 1 (≈ 2.39 µM) | 10.59 |  |
| C/C=C/c1ccc(N2C[C@H](C[C@](C)(C(=O)NO)S(C)(=O)=O)OC2=O)cc1 | 32 (≈ 83.7 µM) |  | 4 (≈ 10.5 µM) | 1.4 |  | 1 (≈ 2.61 µM) | 10.00 |  |
| C[C@@H](O)Cc1ccc(-c2ccc(N3C[C@H](C[C@](C)(C(=O)NO)S(C)(=O)=O)OC3=O)cc2)cc1 | 1 (≈ 2.1 µM) |  | 0.25 (≈ 0.525 µM) | 1.2 |  | 2 (≈ 4.2 µM) | 9.92 |  |
| C[C@@](C[C@H]1CN(c2ccc(C#CC3CC3)cc2)C(=O)O1)(C(=O)NO)S(C)(=O)=O | 1 (≈ 2.46 µM) | 0.06 | 0.125 (≈ 0.308 µM) | 1.9 | 0.25 | 0.5 (≈ 1.23 µM) |  | fraction unbound [11]: 0.13; Activity (Klebsiella pneumoniae [12]): 4.5 log10CFU/g; fraction unbound [13]: 0.14; clearance [14]: 1.44 L/h/kg; Activity (Klebsiella pneumoniae [15]): 2.5 log10CFU/g; Vd [16]: 1.6 L/kg; Activity (Pseudomonas aeruginosa [17]): Active; clearance [18]: 2.94 L/h/kg; clearance [19]: 1.56 L/h/kg; solubility [20]: > 20 mg/mL; half-life [21]: 330 min; half-life [22]: 42 min; Activity (Pseudomonas aeruginosa [23]): Active; fraction unbound [24]: 0.11; half-life [25]: 54 min; Vd [26]: 1 L/kg; Vd [27]: 0.8 L/kg; fraction unbound [28]: 0.14; solubility [29]: 0.126 mg/mL (≈ 310 µM) |
| C[C@@](C[C@H]1CN(c2ccc(C3CC3)cc2)C(=O)O1)(C(=O)NO)S(C)(=O)=O | > 64 |  | 32 (≈ 83.7 µM) | 1.5 |  | 2 (≈ 5.23 µM) | 9.92 |  |
| C[C@@](C[C@H]1CC(c2ccc(Br)cc2)=NO1)(C(=O)NO)S(C)(=O)=O | > 64 |  | 32 (≈ 79 µM) | 1.2 |  | 4 (≈ 9.87 µM) | 8.59 |  |
| CO[C@H]1/C=C/O[C@@]2(C)Oc3c(C)c(O)c4c(O)c(c(/C=N/N5CCN(C)CC5)c(O)c4c3C2=O)NC(=O)/C(C)=C\C=C\[C@H](C)[C@H](O)[C@@H](C)[C@@H](O)[C@@H](C)[C@H](OC(C)=O)[C@@H]1C [RIFAMPIN] | 32 (≈ 38.9 µM) |  |  |  |  |  |  |  |
